# Test results published in patent publication US10098870B2 (JENKEM TECHNOLOGY CO., LTD. (BEIJING), priority 2013, dated 2018).
# Values joined by “and” are separate entries in the source; they are usually repeats but may differ in a detail not shown here. Identical values can stand only once. “Also recorded” adds a separate entry of the source. Like-named read-outs stand apart in the source and are kept apart here.
# What was measured:
# [1] = Body weight, survival and tolerance of mice bearing A549 (Example 10); details: mean ± SE;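 also: nude mice, each given 1.0×10^7 A549 tumor cells in the right shoulder region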
# Experimental: 1.0×10^7 of A549 tumor cells were suspended in 0.1 ml of PBS, inoculated to each nude mouse at the right shoulder, and there were totally 36 mice inoculated.
# [2] = test system: human hepatoma cell plc/prf/5; experiment: Anti-tumor effect on subcutaneous transplantation tumor model of plc/prf/5 in NOD/SCID mice (Example 5); assay type: in vivo, NOD/SCID mouse; details: for Tumor volume: 10 mg/kg (counted with rapamycin) i.v. Q2W×2W, mean ± SE
# Experimental: The tumor cells were passaged with digestion by trypsin-EDTA twice a week. The cells in the exponential growth phase were collected, counted, and used for inoculation.
# 1×10^7 of plc/prf/5 tumor cells were suspended in 0.1 ml of mixed solution (PBS:Matrigel=4:1), inoculated to each NOD/SCID mouse at the right shoulder.
# Wherein Q2W×2W represents intravenous injection […] for 2 weeks, the same below. (2) Experimental Results
# [3] = test system: H460 human non-small cell lung cancer cells; details: for T/C (%) RTV / T/C (%) TW: vs physiological saline; for RTV / Tumor weight: 29th day, Mean ± SEM; for Tumor volume: mean ± SE
# Experimental: 5.0×10^6 of H460 tumor cells were suspended in 0.1 ml of PBS, inoculated to each nude mouse at the right shoulder, and there were totally 34 mice inoculated. 8 days later the mean tumor volume was desired to reach about 143 mm^3, the mice with a smaller or larger tumor were removed and the remaining 24 mice were divided into groups randomly according to tumor volume and administrated.
# [4] = test system: human hepatoma cell Hep3B; experiment: Anti-tumor effect on xenograft tumor model of Hep3B in immune deficiency mice (Example 7); details: for T/C (%) RTV / T/C (%) TW: vs physiological saline; for RTV / Tumor weight: 44th day, Mean ± SEM; for Tumor volume: mean ± SE
substance,measurement,setting,value
monomethoxy polyethylene glycol (20K)-glutamic acid dipeptide-rapamycin conjugate [LPR-2],Body weight of animal,"[1]; day 24 after inoculation, 30 mg/kg i.v. BIW×4W",21.6 ± 0.5 g
same,Body weight of animal,"[1]; day 24 after inoculation, 45 mg/kg i.v. QW×4W",20.9 ± 0.3 g
same,Body weight of animal,"[1]; day 28 after inoculation, 30 mg/kg i.v. BIW×4W",20.9 ± 0.4 g
same,Body weight of animal,"[1]; day 28 after inoculation, 45 mg/kg i.v. QW×4W",20.8 ± 0.1 g
same,Body weight of animal,"[1]; day 31 after inoculation, 30 mg/kg i.v. BIW×4W",21.4 ± 0.4 g
same,Body weight of animal,"[1]; day 31 after inoculation, 45 mg/kg i.v. QW×4W",21.1 ± 0.2 g
same,Body weight of animal,"[1]; day 35 after inoculation, 30 mg/kg i.v. BIW×4W",21.8 ± 0.4 g
same,Body weight of animal,"[1]; day 35 after inoculation, 45 mg/kg i.v. QW×4W",21.1 ± 0.3 g
same,Body weight of animal,"[1]; day 38 after inoculation, 30 mg/kg i.v. BIW×4W",21.6 ± 0.4 g
same,Body weight of animal,"[1]; day 38 after inoculation, 45 mg/kg i.v. QW×4W",21.6 ± 0.3 g
same,Body weight of animal,"[1]; day 42 after inoculation, 30 mg/kg i.v. BIW×4W",22.5 ± 0.3 g
same,Body weight of animal,"[1]; day 42 after inoculation, 45 mg/kg i.v. QW×4W",22.0 ± 0.3 g
same,Body weight of animal,"[1]; day 45 after inoculation, 30 mg/kg i.v. BIW×4W",22.2 ± 0.3 g
same,Body weight of animal,"[1]; day 45 after inoculation, 45 mg/kg i.v. QW×4W",22.4 ± 0.3 g
same,Body weight of animal,"[1]; day 49 after inoculation, 30 mg/kg i.v. BIW×4W",22.0 ± 0.3 g
same,Body weight of animal,"[1]; day 49 after inoculation, 45 mg/kg i.v. QW×4W",21.5 ± 0.3 g
same,Body weight of animal,"[1]; day 52 after inoculation, 30 mg/kg i.v. BIW×4W",22.0 ± 0.3 g
same,Body weight of animal,"[1]; day 52 after inoculation, 45 mg/kg i.v. QW×4W",22.1 ± 0.3 g
same,anti-tumor effect (in words),"[2]; 10 mg/kg counted with rapamycin, i.v. Q2W×2W",stronger antitumor activity than that of polyethylene glycol-rapamycin (LPR-1); also recorded: a certain anti-tumor effect; also recorded: obviously the maximum anti-tumor effect; also recorded: anti-tumor effect significantly higher than that of LPR-1
same,Days for delaying tumor growth (to 1000 mm^3),[2]; 10 mg/kg i.v. Q2W×2W,>7 days
same,Tumor volume,[2]; day 24 after inoculation,353 ± 54 mm^3
same,Tumor volume,[2]; day 27 after inoculation,404 ± 89 mm^3
same,Tumor volume,[2]; day 31 after inoculation,391 ± 72 mm^3
same,Tumor volume,[2]; day 34 after inoculation,456 ± 77 mm^3
same,Tumor volume,[2]; day 38 after inoculation,536 ± 77 mm^3
same,"TGD (to 1,000 mm^3)",[3]; 30 mg/kg i.v. BIW×3W,>9
same,T/C (%) RTV,[3]; 30 mg/kg i.v. BIW×3W,22%
same,T/C (%) TW,[3]; 30 mg/kg i.v. BIW×3W,23%
same,"TGD (to 1,000 mm^3)",[3]; 45 mg/kg i.v. QW×3W,>9
same,T/C (%) RTV,[3]; 45 mg/kg i.v. QW×3W,25%
same,T/C (%) TW,[3]; 45 mg/kg i.v. QW×3W,25%
same,RTV,[3]; 30 mg/kg i.v. BIW×3W,3.43 ± 0.32
same,Tumor weight,[3]; 30 mg/kg i.v. BIW×3W,364 ± 54 mg
same,RTV,[3]; 45 mg/kg i.v. QW×3W,3.86 ± 0.42
same,Tumor weight,[3]; 45 mg/kg i.v. QW×3W,406 ± 60 mg
same,Tumor volume,"[3]; day 8 after inoculation, 30 mg/kg i.v. BIW×3W",143 ± 16 mm^3
same,Tumor volume,"[3]; day 8 after inoculation, 45 mg/kg i.v. QW×3W",143 ± 18 mm^3
same,Tumor volume,"[3]; day 12 after inoculation, 30 mg/kg i.v. BIW×3W",213 ± 40 mm^3
same,Tumor volume,"[3]; day 12 after inoculation, 45 mg/kg i.v. QW×3W",194 ± 33 mm^3
same,Tumor volume,"[3]; day 15 after inoculation, 30 mg/kg i.v. BIW×3W",208 ± 44 mm^3
same,Tumor volume,"[3]; day 15 after inoculation, 45 mg/kg i.v. QW×3W",260 ± 46 mm^3
same,Tumor volume,"[3]; day 19 after inoculation, 30 mg/kg i.v. BIW×3W",259 ± 50 mm^3
same,Tumor volume,"[3]; day 19 after inoculation, 45 mg/kg i.v. QW×3W",282 ± 46 mm^3
same,Tumor volume,"[3]; day 22 after inoculation, 30 mg/kg i.v. BIW×3W",343 ± 67 mm^3
same,Tumor volume,"[3]; day 22 after inoculation, 45 mg/kg i.v. QW×3W",346 ± 53 mm^3
same,Tumor volume,"[3]; day 26 after inoculation, 30 mg/kg i.v. BIW×3W",459 ± 70 mm^3
same,Tumor volume,"[3]; day 26 after inoculation, 45 mg/kg i.v. QW×3W",468 ± 57 mm^3
same,Tumor volume,"[3]; day 29 after inoculation, 30 mg/kg i.v. BIW×3W, 30 mg/kg",505 mm^3 and 505 ± 87 mm^3
same,Tumor volume,"[3]; day 29 after inoculation, 45 mg/kg i.v. QW×3W, 45 mg/kg",549 mm^3 and 549 ± 76 mm^3
same,"TGD (to 1,000 mm^3)",[4]; 30 mg/kg i.v. BIW×4W,17
same,T/C (%) RTV,[4]; 30 mg/kg i.v. BIW×4W,54%
same,T/C (%) TW,[4]; 30 mg/kg i.v. BIW×4W,46%
same,"TGD (to 1,000 mm^3)",[4]; 45 mg/kg i.v. QW×4W,>17
same,T/C (%) RTV,[4]; 45 mg/kg i.v. QW×4W,42%
same,T/C (%) TW,[4]; 45 mg/kg i.v. QW×4W,40%
same,anti-tumor effect (in words),"[4]; 5-FU 15 mg/kg, LPR-2 30 and 45 mg/kg",slightly better than that of the 5-FU; also recorded: a common anti-tumor effect
same,RTV,[4]; 30 mg/kg i.v. BIW×4W,2.43 ± 0.19
same,Tumor weight,[4]; 30 mg/kg i.v. BIW×4W,720 ± 94 mg
same,RTV,[4]; 45 mg/kg i.v. QW×4W,1.85 ± 0.17
same,Tumor weight,[4]; 45 mg/kg i.v. QW×4W,625 ± 84 mg
same,Tumor volume,"[4]; day 16 after inoculation, 30 mg/kg i.v. BIW×4W",454 ± 60 mm^3
same,Tumor volume,"[4]; day 16 after inoculation, 45 mg/kg i.v. QW×4W",453 ± 56 mm^3
same,Tumor volume,"[4]; day 20 after inoculation, 30 mg/kg i.v. BIW×4W",524 ± 47 mm^3
same,Tumor volume,"[4]; day 20 after inoculation, 45 mg/kg i.v. QW×4W",490 ± 73 mm^3
same,Tumor volume,"[4]; day 23 after inoculation, 30 mg/kg i.v. BIW×4W",622 ± 37 mm^3
same,Tumor volume,"[4]; day 23 after inoculation, 45 mg/kg i.v. QW×4W",549 ± 83 mm^3
same,Tumor volume,"[4]; day 27 after inoculation, 30 mg/kg i.v. BIW×4W",643 ± 45 mm^3
same,Tumor volume,"[4]; day 27 after inoculation, 45 mg/kg i.v. QW×4W",589 ± 91 mm^3
same,Tumor volume,"[4]; day 30 after inoculation, 30 mg/kg i.v. BIW×4W",689 ± 57 mm^3
same,Tumor volume,"[4]; day 30 after inoculation, 45 mg/kg i.v. QW×4W",584 ± 87 mm^3
same,Tumor volume,"[4]; day 34 after inoculation, 30 mg/kg i.v. BIW×4W",761 ± 82 mm^3
same,Tumor volume,"[4]; day 34 after inoculation, 45 mg/kg i.v. QW×4W",608 ± 89 mm^3
same,Tumor volume,"[4]; day 37 after inoculation, 30 mg/kg i.v. BIW×4W",899 ± 97 mm^3
same,Tumor volume,"[4]; day 37 after inoculation, 45 mg/kg i.v. QW×4W",699 ± 102 mm^3
same,Tumor volume,"[4]; day 41 after inoculation, 30 mg/kg i.v. BIW×4W",995 ± 126 mm^3
same,Tumor volume,"[4]; day 41 after inoculation, 45 mg/kg i.v. QW×4W",733 ± 93 mm^3
